Values joined by “and” are separate entries in the source; they are usually repeats but may differ in a detail not shown here. Equal values may be shown once.
What was measured:
[1] = tested on: SYK; parameters: method as in Dieci et al., 2013; settings: ref Dieci et al., 2013; cited from earlier work
[2] = tested on: PDGFα; parameters: method as in Dieci et al., 2013; settings: ref Dieci et al., 2013; cited from earlier work
[3] = biological target: T1, FGFR1 V561M kinase domain (Homo sapiens, UniProt P11362, V561M); test: ADP-Glo kinase assay, FGFR1 V561M gatekeeper variant; type: biochemical; parameters: All kinase domain constructs were cloned into pOPINS (OPPF, Oxford, UK) or pJ821; purification tag (captured on HisTrap, removed with Ulp1 protease) (cleaved yes); made in house; host or cells: E. coli C41 (DE3) co-expressing lambda phosphatase and human CDC37 (phospho form: without the accessory plasmid); settings: for change of inhibitor sensitivity by V561M: V561M compared to wild type, in vitro kinase assay
Procedure: The ADP-Glo (Promega) methodology was used for all kinase assays following manufacturers instructions. […] In various experiments the concentrations of these components were varied and this is stated in the text or figure legends. In order to calculate valid inhibition constants (Ki), a number of kinetic parameters needed to be ascertained, in particular, the Km of the kinases for ATP. A thorough Michaelis–Menten kinetic analysis was performed ensuring that all relevant parameters were in the linear range and that the appropriate concentrations of ATP, substrate and kinase were adhered to. All data were processed using Graphpad Prism and parameters presented in Supplemental Tables.
Fig. 1 Kinase activity and inhibition of FGFR1 variants. A. Amino acid alignment of part of the hinge region of the FGFR family and a number of other tyrosine kinases with reported gatekeeper mutations. The gatekeeper residue in each case is numbered and bordered in dark grey. The FGFR 1 to 3 tyrosine that is a cysteine in FGFR4 is highlighted in light grey. B. Histogram showing the inhibition constants (Ki) for four selected compounds upon FGFR1 kinase domain protein, wild type and the indicated mutants. The data were generated from enzyme kinetic analyses using various concentrations of inhibitors and fitting using the Morrison equation within Graphpad Prism. Each data point was repeated in duplicate and the standard error of the mean is presented on each bar. C. Left panel: comparison of the activity of FGFR1 apo (WT-apo) and phosphorylated (WT-2P) kinase domain protein produced using the ADP-Glo Assay. Each data point was produced in triplicate and the standard errors are indicated. Right panel: comparison of the enzyme efficiency (kcat/Km) of FGFR1 apo and phosphorylated protein. Parameters were generated through Michaelis–Menten kinetic experiments and analysed using Graphpad Prism software. […] The data in B–D are representative for 3–4 independent experiments. See also Supplemental Tables S1 and S2.

[4] = tested on: control (vector only) NIH 3T3 cells; test: Cell viability assay, control NIH 3T3 cells; type: cell-based; settings: for effect on cell viability: concentration range up to 1 μM, 72 h
Procedure: See also Supplemental Table S2. […] See also Supplemental Table S1. C. […] Cell viability was assessed at 72 h. […]
from 3 independent assays. […]
the CellTiter-Blue Cell Viability Assay (Promega). Cells were plated in triplicate in a 96- […]
medium with inhibitor at the indicated concentration. After 3 days with the inhibitor, 20 µl […]
(Berthold technologies). Background signal was removed by subtracting the fluorescence from cell-free wells. Results are from 3 independent assays.

[5] = tested on: LYN; parameters: method as in Dieci et al., 2013; settings: ref Dieci et al., 2013; cited from earlier work
[6] = biological target: vascular endothelial growth factor receptor (VEGFR); settings: cited from earlier work
[7] = tested on: FGFR; settings: ref Dieci et al., 2013; cited from earlier work
[8] = tested on: mutations of the gatekeeper residue in all FGFR receptors; parameters: method as in Tan et al., 2014; settings: ref Tan et al., 2014; cited from earlier work
[9] = tested on: NIH 3T3 cells expressing FGFR3 WT; test: Cell viability assay, FGFR3 WT NIH 3T3 cells; type: cell-based; settings: increasing concentrations of inhibitor
Procedure: Cells were seeded in triplicate at 1x10^5 cells per well in 6-well plates, fed every 2-3 days and trypsinised and counted after 7 days, using a coulter counter (Beckman). Results are from 3 independent assays.
The amount of viable cells following culture with kinase inhibitors was measured using the CellTiter-Blue Cell Viability Assay (Promega). Cells were plated in triplicate in a 96-well plate at 2x10^3 cells/well and left to attach overnight before the addition of fresh medium with inhibitor at the indicated concentration. After 3 days with the inhibitor, 20 µl of cell titer blue reagent was added for 2 hours, and fluorescence measured with excitation at 540 nm and emission at 590 nm, using a Mithras LB940 plate reader (Berthold technologies). Background signal was removed by subtracting the fluorescence from cell-free wells. Results are from 3 independent assays.

[10] = tested on: NIH 3T3 cells expressing FGFR3-TACC3 fusion protein; test: Cell viability assay, FGFR3-TACC3 NIH 3T3 cells; type: cell-based; settings: increasing concentrations, 72 h
From the text: (§1) Data were fit with a one-phase association model (for presentation purposes only) using Graphpad prism. Each data point was produced in triplicate and the standard errors are indicated. […] Parameters were generated through Michaelis–Menten kinetic experiments and analysed using Graphpad Prism software. See also Supplemental Table S2. […] The data were generated from enzyme kinetic analyses using various concentrations of inhibitors and fitting using the Morrison equation within Graphpad Prism. Each data point was repeated in duplicate and the standard error of the mean is presented on each bar. See also Supplemental Table S1. C. […] Bottom panels show morphology of NIH3T3 cells expressing the indicated constructs. […] Cell viability was assessed at 72 h. […]
(§2) Cells were seeded in triplicate at 1x10^5 cells per well in 6-well plates, fed every 2-3 days and trypsinised and counted after 7 days, using a coulter counter (Beckman). […]
(§3) The amount of viable cells following culture with kinase inhibitors was measured using the CellTiter-Blue Cell Viability Assay (Promega). […] After 3 days with the inhibitor, 20 µl of cell titer blue reagent was added for 2 hours, and fluorescence measured with excitation at 540 nm and emission at 590 nm, using a Mithras LB940 plate reader (Berthold technologies). Background signal was removed by subtracting the fluorescence from cell-free wells. […]

[11] = biological target: T1, FGFR1 V561M kinase domain; test: Isothermal titration calorimetry, FGFR1 V561M
[12] = biological target: FGFR1 WT kinase domain (Homo sapiens, UniProt P11362); test: Isothermal titration calorimetry, FGFR1 WT; settings: ITC, 20 °C
[13] = biological target: FGFR1 Y563C kinase domain (Homo sapiens, UniProt P11362, Y563C); test: Isothermal titration calorimetry, FGFR1 Y563C
[14] = biological target: FGFR3 WT kinase domain (Homo sapiens, UniProt P22607); test: Isothermal titration calorimetry, FGFR3 WT; settings: ITC, 20 °C
[15] = tested on: KIT; settings: ref Dieci et al., 2013; cited from earlier work
[16] = tested on: KMS-11 cells harbouring FGFR3 Y373C, V555M; parameters: method as in Chell et al., 2013; settings: 1 μM; ref Chell et al., 2013; cited from earlier work
[17] = tested on: NIH 3T3 cell line expressing FGFR3-TACC3 V555M; settings: increasing concentrations, 72 h
From the text: as §1, §2, §3

Molecule: Cc1ccc(C(=O)Nc2ccc(CN3CCN(C)CC3)c(C(F)(F)F)c2)cc1C#Cc1cnc2cccnn12 [AP24534]
- IC50 [1]: 0.2 to 0.4 nM
- IC50 [2]: 1 to 2.5 nM
- change of inhibitor sensitivity by V561M [3]: marginal effect on sensitivity
- inhibition at 1 µM ([4]; Mus musculus, NIH3T3, read-out: inhibitory effects under control condition): > 60%
- IC50 [6]: 1 to 2.5 nM
- IC50 [7]: 1 to 2.5 nM

Molecule: C=CC(=O)Nc1ccc(CN2C(=O)N(c3cc(OC)cc(OC)c3)Cc3cnc(Nc4ccc(N5CCN(C)CC5)cc4)nc32)cc1 [FIIN2]
- efficacy towards gatekeeper mutations [8]: proved effective

Molecule: C=CC(=O)Nc1ccc(CN(C(=O)Nc2c(Cl)c(OC)cc(OC)c2Cl)c2cc(Nc3ccc(N4CCN(C)CC4)cc3)ncn2)cc1 [FIIN3]
- efficacy towards gatekeeper mutations [8]: proved effective

Molecule: CCN(CC)CCCCNc1ncc2cc(-c3cc(OC)cc(OC)c3)c(NC(=O)NC(C)(C)C)nc2n1 [PD173074]
- effect on cell viability [9]: unaffected
- change of inhibitor sensitivity by V561M [3]: clear reduction of sensitivity
- reduction of potency on the gatekeeper variant ([3]; V561M versus WT FGFR1): up to 225 fold
- effect on cell viability [10]: selectively inhibited
- -TΔS ([11]; ITC, 20 °C): -5.3 ± 0.14 kcal/mol
- n (number of binding sites) ([11]; ITC, 20 °C): 0.80 ± 0.006
- ΔG ([11]; ITC, 20 °C): -8.7 ± 0.10 kcal/mol
- ΔH ([11]; ITC, 20 °C): -3.4 ± 0.04 kcal/mol
- ΔΔGexp (binding free energy difference, mutant − WT) ([11]; V561M versus WT, from ITC, standard deviation in parentheses): 2.73 ± 0.18 kcal/mol and 2.73 (0.18) kcal/mol
- -TΔS [12]: -3.7 ± 0.1 kcal/mol
- n (number of binding sites) [12]: 0.91 ± 0.0007
- ΔG [12]: -11.4 ± 0.09 kcal/mol
- ΔH [12]: -7.7 ± 0.01 kcal/mol
- -TΔS ([13]; ITC, 20 °C): -4.1 ± 0.14 kcal/mol
- n (number of binding sites) ([13]; ITC, 20 °C): 0.66 ± 0.002
- ΔG ([13]; ITC, 20 °C): -10.5 ± 0.11 kcal/mol
- ΔH ([13]; ITC, 20 °C): -6.4 ± 0.03 kcal/mol
- ΔΔGexp (binding free energy difference, mutant − WT) ([13]; Y563C versus WT, from ITC, uncertainty in parentheses): 0.97 kcal/mol
- effect on cell viability [4]: very little or no effect
- -TΔS [14]: -0.1 ± 0.32 kcal/mol
- n (number of binding sites) [14]: 0.89 ± 0.002
- ΔG [14]: -11.5 ± 0.25 kcal/mol
- ΔH [14]: -11.4 ± 0.07 kcal/mol

Molecule: CN1CCN(c2ccc3nc(-c4c(N)c5c(F)cccc5[nH]c4=O)[nH]c3c2)CC1 [TKI258]
- effect on cell viability [4]: very little or no effect

Molecule: AZD4547
- effect on cells [16]: only marginally affected
- change of inhibitor sensitivity by V561M [3]: clear reduction of sensitivity
- effect on cell viability [10]: most effective
- effect on cell viability [17]: completely ineffective
- effect on cell viability [4]: very little or no effect

Source: publication PMC4471147, “The Effect of Mutations on Drug Sensitivity and Kinase Activity of Fibroblast Growth Factor Receptors: A Combined Experimental and Theoretical Study” (eBioMedicine, 2015)
